The assay relates to HIV-1 (HIVIIIB) replication in MT2 cell line. Kind of assay: HIV-1 replication in MT2 cell line with and without 30% human serum (viral RT activity in supernatant). Type of assay: cell-based. The essentials:
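Read-out is supernatant reverse transcriptase activity on day 5 post-infection, giving IC50 and IC90. Compounds were titrated in complete medium ± 30% human serum, re-dosed after 3 days, on MT2 cells exposed for 3 h to HIVIIIB at MOI 0.5 then washed.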

The mark [1] stands for this setting: Human immunodeficiency virus 1, MT2 cells, with 30% human serum, average IC50 if tested more than once, read-out: MT2 (HIVIIIB) with HS 30% IC50 range.
[2] abbreviates: Human immunodeficiency virus 1, MT2 cells, without human serum, average IC50 if tested more than once, read-out: MT2 (HIVIIIB) IC50 range.

Each structure is given as a SMILES string. Structures can show the parent of a compound that is named as a salt. Where two headings read alike, the source gives them in different places. Where only a bound is given, the exact number is not on record here.

One may read the IC50 as the concentration that gives 50% inhibition.

With `CC(C)C1=C2[C@H]3CC[C@@H]4[C@@]5(C)CC[C@H](OC(=O)CC(C)(C)C(=O)O)C(C)(C)[C@@H]5CC[C@@]4(C)[C@]3(C)CC[C@@]2(NC(=O)c2cccc(F)c2)CC1=O` [19-12, 3β-O-(3′,3′-Dimethylsuccinyl)-17β-(3-fluorobenzamido)-21-oxolup-18-ene], the IC50 under setting [1] was under 199 nM. In the case of `CNC1CCN(C(=O)N[C@@]23CC[C@]4(C)C(CCC5[C@@]6(C)CC[C@H](OC(=O)CC(C)(C)C(=O)O)C(C)(C)C6CC[C@]54C)C2=C(C(C)C)C(=O)C3)CC1` (stereo partly drawn) [17-39, 3β-O-(3′,3′-Dimethylsuccinyl)-17β-[(4-methylamino-piperidine-1-carbonyl)-amino]-21-oxolup-18-ene], the IC50 under setting [1] was in the range of 200 to 999 nM.

For `CC(C)C1=C2[C@H]3CC[C@@H]4[C@@]5(C)CC[C@H](OC(=O)CC(C)(C)C(=O)O)C(C)(C)[C@@H]5CC[C@@]4(C)[C@]3(C)CC[C@@]2(NC(=O)c2ccnn2C)CC1=O` [19-34, 3β-O-(3′,3′-Dimethylsuccinyl)-17β-(1-methyl-1H-pyrazole-5-amido)-21-oxolup-18-ene], the IC50 was under 199 nM under setting [1] and under 199 nM under setting [2]. For the compound `CC(C)C1=C2C3CCC4[C@@]5(C)CC[C@H](OC(=O)CC(C)(C)C(=O)O)C(C)(C)C5CC[C@@]4(C)[C@]3(C)CC[C@@]2(NC(=O)N2CCC(N)CC2)CC1=O` (stereo partly drawn) [17-23, 3β-O-(3′,3′-Dimethylsuccinyl)-17β-[(4-amino-piperidine-1-carbonyl)-amino]-21-oxolup-18-ene trifluoroacetate], the IC50 (read-out: MT2 (HIVIIIB) with HS 30% IC50 range, MT2 cells, with 30% human serum, average IC50 if tested more than once) is 200 to 999 nM. Consider `CC(C)C1=C2C3CCC4[C@@]5(C)CC[C@H](OC(=O)CC(C)(C)C(=O)O)C(C)(C)C5CC[C@@]4(C)[C@]3(C)CC[C@@]2(NC(=O)OCCC2CC2)CC1=O` (stereo partly drawn) [20-22, 3β-O-(3′,3′-Dimethylsuccinyl)-17β-(2-cyclopropyl-1-ethoxycarbonylamino)-21-oxolup-18-ene], for which the IC50 under setting [1] is under 199 nM. Turning to `CC(C)C1=C2[C@H]3CC[C@@H]4[C@@]5(C)CC[C@H](OC(=O)CC(C)(C)C(=O)O)C(C)(C)[C@@H]5CC[C@@]4(C)[C@]3(C)CC[C@@]2(NC(=O)N2CCN(C(=O)OC(C)(C)C)CC2)CC1=O` [17-14, 3β-O-(3′,3′-Dimethylsuccinyl)-17β-[(4-tert-butyloxycarbonyl-piperazine-1-carbonyl)-amino]-21-oxolup-18-ene], the IC50 under setting [1] is under 199 nM and the IC50 under setting [2] is under 199 nM.

On to `CC(C)C(=O)N[C@@]12CC[C@]3(C)C(CCC4[C@@]5(C)CC[C@H](OC(=O)CC(C)(C)C(=O)O)C(C)(C)C5CC[C@]43C)C1=C(C(C)C)C(=O)C2` (stereo partly drawn) [19-31, 3β-O-(3′,3′-Dimethylsuccinyl)-17β-isopropylamido-21-oxolup-18-ene], for which the IC50 under setting [1] is under 199 nM. Still for that read-out and setting: for `CC(C)C1=C2C3CCC4[C@@]5(C)CC[C@H](OC(=O)CC(C)(C)C(=O)O)C(C)(C)C5CC[C@@]4(C)[C@]3(C)CC[C@@]2(NC(=O)NCc2cccs2)CC1=O` (stereo partly drawn) [17-64, 3β-O-(3′,3′-Dimethylsuccinyl)-17β-[N′-(thiophen-2-ylmethyl)-ureido]-21-oxolup-18-ene] the value was under 199 nM; for `CC(C)C1=C2[C@H]3CC[C@@H]4[C@@]5(C)CC[C@H](OC(=O)CC(C)(C)C(=O)O)C(C)(C)[C@@H]5CC[C@@]4(C)[C@]3(C)CC[C@@]2(NC(=O)c2cccs2)CC1=O` [19-20, 3β-O-(3′,3′-Dimethylsuccinyl)-17β-(2-thiophene)amido-21-oxolup-18-ene], under 199 nM. The same measure, in the same setting: the figure for `Cc1ccc(C(=O)N[C@@]23CC[C@]4(C)[C@H](CC[C@@H]5[C@@]6(C)CC[C@H](OC(=O)CC(C)(C)C(=O)O)C(C)(C)[C@@H]6CC[C@]54C)C2=C(C(C)C)C(=O)C3)cc1` [19-43, 3β-O-(3′,3′-Dimethylsuccinyl)-17β-(4-methylbenzamido)-21-oxolup-18-ene] is under 199 nM; for `CC(C)C1=C2[C@H]3CC[C@@H]4[C@@]5(C)CC[C@H](OC(=O)CC(C)(C)C(=O)O)C(C)(C)[C@@H]5CC[C@@]4(C)[C@]3(C)CC[C@@]2(NC(=O)N2CCN(C(C)C)CC2)CC1=O` [17-29, 3β-O-(3′,3′-Dimethylsuccinyl)-17β-[(4-isopropyl-piperazine-1-carbonyl)-amino]-21-oxolup-18-ene] it is under 199 nM.

Turning to `CC(C)C1=C2C3CCC4[C@@]5(C)CC[C@H](OC(=O)CC(C)(C)C(=O)O)C(C)(C)C5CC[C@@]4(C)[C@]3(C)CC[C@@]2(NC(=O)c2cn[nH]c2)CC1=O` (stereo partly drawn) [19-82, 3β-O-(3′,3′-Dimethylsuccinyl)-17β-(1H-pyrazole-4-amido)-21-oxolup-18-ene], under setting [1], the IC50 was under 199 nM. Same read-out and setting: for `CC(C)C1=C2C3CCC4[C@@]5(C)CC[C@H](OC(=O)CC(C)(C)C(=O)O)C(C)(C)C5CC[C@@]4(C)[C@]3(C)CC[C@@]2(NC(=O)NCC2CC2)CC1=O` (stereo partly drawn) [17-21, 3β-O-(3′,3′-Dimethylsuccinyl)-17β-(N′-cyclopropylmethyl-ureido)-21-oxolup-18-ene] the value was 200 to 999 nM; for `CC(C)C1=C2[C@H]3CC[C@@H]4[C@@]5(C)CC[C@H](OC(=O)CC(C)(C)C(=O)O)C(C)(C)[C@@H]5CC[C@@]4(C)[C@]3(C)CC[C@@]2(NC(=O)C2CCN(C)CC2)CC1=O` [19-36, 3β-O-(3′,3′-Dimethylsuccinyl)-17β-(1-methylpiperidine-4-amido)-21-oxolup-18-ene], under 199 nM; for `Cc1cnc(C(=O)N[C@@]23CC[C@]4(C)C(CCC5[C@@]6(C)CC[C@H](OC(=O)CC(C)(C)C(=O)O)C(C)(C)C6CC[C@]54C)C2=C(C(C)C)C(=O)C3)o1` (stereo partly drawn) [19-80, 3β-O-(3′,3′-Dimethylsuccinyl)-17β-(5-methyl-[1,3]-oxazole-2-amido)-21-oxolup-18-ene], under 199 nM.

Take `Cc1nnc(C(=O)N(C)[C@@]23CC[C@]4(C)[C@H](CC[C@@H]5[C@@]6(C)CC[C@H](OC(=O)CC(C)(C)C(=O)O)C(C)(C)[C@@H]6CC[C@]54C)C2=C(C(C)C)C(=O)C3)o1` [19-69, 3β-O-(3′,3′-Dimethylsuccinyl)-17β-[methyl-(5-methyl-[1,3,4]oxadiazole-2-carbonyl)-amino]-21-oxolup-18-ene]: under setting [1], the IC50 is under 199 nM. For `CC(C)C1=C2C3CCC4[C@@]5(C)CC[C@H](OC(=O)CC(C)(C)C(=O)O)C(C)(C)C5CC[C@@]4(C)[C@]3(C)CC[C@@]2(NC(=O)OCC2CCCCC2)CC1=O` (stereo partly drawn) [20-7, 3β-O-(3′,3′-Dimethylsuccinyl)-17β-cyclohexylmethoxycarbonylamino-21-oxolup-18-ene], the IC50 reads like this: under setting [1], under 199 nM; under setting [2], under 199 nM. For `Cc1noc(C(=O)N[C@@]23CC[C@]4(C)C(CCC5[C@@]6(C)CC[C@H](OC(=O)CC(C)(C)C(=O)O)C(C)(C)C6CC[C@]54C)C2=C(C(C)C)C(=O)C3)n1` (stereo partly drawn) [19-67, 3β-O-(3′,3′-Dimethylsuccinyl)-17β-(3-methyl-[1,2,4]oxadiazole-5-amido)-21-oxolup-18-ene], the IC50 under setting [1] was under 199 nM. Turning to `CC(C)C1=C2[C@H]3CC[C@@H]4[C@@]5(C)CC[C@H](OC(=O)CC(C)(C)C(=O)O)C(C)(C)[C@@H]5CC[C@@]4(C)[C@]3(C)CC[C@@]2(NC(=O)[C@H]2CCCCN2C)CC1=O` [19-66, 3β-O-(3′,3′-Dimethylsuccinyl)-17β-((R)-1-methylpiperidine-2-amido)-21-oxolup-18-ene], the IC50 under setting [1] is under 199 nM.

The record behind these values is patent publication US8269026B2, “Lupane derivatives useful for treating HIV” (priority 2008, dated 2012).
